Results published in patent US20240417390A1, “HYDROGEN SULFATE SALT OF A BCL-2 INHIBITOR, RELATED CRYSTALLINE FORM, METHOD FOR PREPARING THE SAME AND PHARMACEUTICAL COMPOSITIONS CONTAINING THE SAME” (LES LABORATOIRES SERVIER, priority 2018, published 2024).

Test: Solubility in water
Assay type: physicochemical
Conditions: free base
Protocol: Although Compound A is a very promising drug, it is a difficult compound to formulate. In particular, it is […] in water (<0.01 mg/ml for the free base). […] In addition, different polymorphs can have different rates of uptake in the body, leading to lower or higher biological activity than desired. In extreme cases, an undesired polymorph can even show toxicity. […] However, even though polymorphism has been a subject for intensive investigations, understanding and controlling this phenomenon represents a substantial scientific challenge. It is hard to predict whether a given molecule will crystallize in one or several crystal forms, and to find conditions leading to such crystallization.

Cc1c(N(C(=O)c2cc(-c3cc(Cl)ccc3C(=O)N3Cc4ccccc4C[C@H]3CN3CCOCC3)n(C)c2C)c2ccc(O)cc2)cc(C#N)n1C [Compound A, 5-(5-chloro-2-{[(3S)-3-(morpholin-4-ylmethyl)-3,4-dihydroisoquinolin-2(1H)-yl]carbonyl}phenyl)-N-(5-cyano-1,2-dimethyl-1H-pyrrol-3-yl)-N-(4-hydroxyphenyl)-1,2-dimethyl-1H-pyrrole-3-carboxamide]
solubility: < 10 µg/mL
